Assay [1] concerns the target recombinant human Myt1 (full length PKMYT1) (Homo sapiens (Human), UniProt Q99640). The experiment in a line: Recombinant human Myt1 kinase assay (ADP-Glo). It is filed as biochemical. Particulars: 10 μM ATP. Summed up: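 Full-length insect-cell-expressed human Myt1 (18 nM final) was preincubated with compound (0.5% DMSO) for 15 min at 22 °C. The reaction ran with 10 μM ATP for 60 min at 30 °C in HEPES buffer with Mg2+/Mn2+ and DTT. ADP formed was read by ADP-Glo luminescence, giving IC50 and % max inhibition.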
In general terms: ADP-Glo turns the ADP formed in a reaction into a luminescent signal.

The subject of assay [2] is PKMYT1 (CDK1 pThr14) in FUOV1 cells. The experiment in a line: PKMYT1 cell-based activity assay, CDK1 pThr14 AlphaLISA in FUOV1 cells. As to conditions: 2 h, 2 h compound incubation, read-out: FUOV-1 CDK1 pThr14 IC50. Summed up:
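FUOV1 cells were treated with PKMYT1 inhibitor for 2 h at 37 °C, then lysed. CDK1 pThr14 was measured by AlphaLISA, pairing an anti-pThr14 antibody with an anti-total CDK1 antibody (5 nM each). Signal read at 680/615 nm and used to derive IC50.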
On the technique in general: In Alpha technology, singlet oxygen from a donor bead excites a nearby acceptor bead.

Chain of recombinant human Myt1 (full length PKMYT1) (Q99640 whole entry): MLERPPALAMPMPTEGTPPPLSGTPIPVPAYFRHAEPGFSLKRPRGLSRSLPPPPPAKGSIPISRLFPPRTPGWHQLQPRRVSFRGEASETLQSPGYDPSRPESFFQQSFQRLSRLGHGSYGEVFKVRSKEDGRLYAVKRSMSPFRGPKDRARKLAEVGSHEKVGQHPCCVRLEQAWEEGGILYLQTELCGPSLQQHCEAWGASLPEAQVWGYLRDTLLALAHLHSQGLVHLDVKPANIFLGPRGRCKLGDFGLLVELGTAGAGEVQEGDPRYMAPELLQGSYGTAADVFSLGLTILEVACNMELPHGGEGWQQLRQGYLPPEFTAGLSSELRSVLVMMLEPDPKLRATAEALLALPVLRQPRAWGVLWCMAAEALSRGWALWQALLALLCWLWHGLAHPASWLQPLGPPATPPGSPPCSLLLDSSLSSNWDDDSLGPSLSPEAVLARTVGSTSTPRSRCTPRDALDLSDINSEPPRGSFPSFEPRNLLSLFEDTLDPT

Broadly, the IC50 is the concentration at which inhibition is half-maximal. Turning to `Cc1ccc2[nH]ncc2c1-c1nc(-c2ccccc2NC(=O)C(C)(C)C)cc(C(N)=O)c1N` [Compound 398], the 50% inhibitory concentration (IC50) in assay [1] worked out at 7 nM; in assay [2], 28 nM.

Consider `Cc1ccc2[nH]ncc2c1-c1nc(-c2cccc3c2NC(=O)C32CC2)nc(C(N)=O)c1N` [Compound 399], for which the results for the IC50 in assay [1] and in assay [2] were 17 nM and 143 nM, respectively.

Turning to `Cc1ccc2[nH]ncc2c1-c1nc(-c2ccccc2NCC(F)F)nc(C(N)=O)c1N` [Compound 400, 5-amino-2-(2-((2,2-difluoroethyl)amino)phenyl)-6-(5-methyl-1H-indazol-4-yl)pyrimidine-4-carboxamide], the IC50 in assay [1] came out at 2 nM; in assay [2], 36 nM.

With `Cc1ccc2[nH]ncc2c1-c1nc(-c2ccccc2NC(=O)C2(C)CC2)nc(C(N)=O)c1N` [Compound 401], the half-maximal inhibitory concentration (IC50) in assay [1] was determined as 5 nM; in assay [2], 4 nM.

As for `Cc1ccc2[nH]ncc2c1-c1nc(-c2ccccc2NC(=O)C(C)(C)C(F)(F)F)nc(C(N)=O)c1N` [Compound 402], the IC50 in assay [1] was 6 nM; in assay [2], 41 nM.

In the case of `CC(C)(C)C(=O)Nc1ccccc1-c1nc(C(N)=O)c(N)c(-c2c(Cl)ccc3[nH]ncc23)n1` [Compound 403], the IC50 in assay [1] came out at 2 nM; in assay [2], 14 nM.

As for `Cc1ccc2[nH]ncc2c1-c1nc(-c2ccccc2NC(=O)C2(C(F)(F)F)CC2)nc(C(N)=O)c1N` [Compound 405], the results for the IC50 in assay [1] and in assay [2] were 4 nM and 93 nM, respectively.

Regarding `Cc1ccc2[nH]ncc2c1-c1nc(-c2ccccc2NC(C)C(F)(F)F)cc(C(N)=O)c1N` (stereo not drawn) [Compound 406], the IC50 in assay [1] is 5 nM; in assay [2], 53 nM.

Take `Cc1ccc2[nH]ncc2c1-c1nc(-c2ccccc2NC(=O)C2(C)COC2)nc(C(N)=O)c1N` [Compound 408]: the IC50 in assay [1] is 7 nM; in assay [2], 9 nM.

For `Cc1ccc2[nH]ncc2c1-c1nc(-c2ccccc2NCC(F)(F)F)nc(C(N)=O)c1N` [Compound 409], the results for the IC50 in assay [1] and in assay [2] were 5 nM and 28 nM, respectively.

For `CC1(C(=O)Nc2ccccc2-c2nc(C(N)=O)c(N)c(-c3c(Cl)ccc4[nH]ncc34)n2)CC1` [Compound 410], the figures for the IC50 in assay [1] and in assay [2] were 4 nM and 9 nM, respectively.

As for `NC(=O)c1nc(-c2ccccc2NC(=O)C2(C(F)(F)F)CC2)nc(-c2c(Cl)ccc3[nH]ncc23)c1N` [Compound 411], the IC50 came out at 7 nM in assay [1] and 60 nM in assay [2].

In the case of `Cc1ccc2[nH]ncc2c1-c1nc(-c2ccccc2NCC(F)F)cc(C(N)=O)c1N` [Compound 412], the half-inhibitory concentration (IC50) in assay [1] came out at 4 nM; in assay [2] it was 223 nM.

Turning to `Cc1ccc2[nH]ncc2c1-c1nc(-c2ccccc2NCC(F)(F)F)cc(C(N)=O)c1N` [Compound 413], the IC50 worked out at 5 nM in assay [1] and 184 nM in assay [2].

In the case of `Cc1ccc2[nH]ncc2c1-c1nc(-c2ccccc2C(F)F)nc(C(N)=O)c1N` [Compound 414], the IC50 in assay [1] turned out to be 122 nM; in assay [2], 2460 nM.

Consider `Cc1ccc2[nH]ncc2c1-c1nc(-c2ccccc2NC(=O)C2CC(F)(F)C2)nc(C(N)=O)c1N` [Compound 415], for which the IC50 in assay [1] was found to be 8 nM; in assay [2], 210 nM.

In the case of `Cc1ccc2[nH]ncc2c1-c1nc(-c2ccccc2NC(=O)C2(C)CCC2)nc(C(N)=O)c1N` [Compound 416], the IC50 stood at 7 nM in assay [1] and 22 nM in assay [2].

`Cc1ccc2[nH]ncc2c1-c1nc(-c2ccccc2NC(=O)C2CC(C)(C)C2)nc(C(N)=O)c1N` [Compound 417]: the results for the IC50 in assay [1] and in assay [2] were 18 nM and 899 nM, respectively.

On to `Cc1ccc2[nH]ncc2c1-c1c(N)c(C(N)=O)cc2c1oc1ccccc12` [Compound 418, 3-amino-4-(5-methyl-1H-indazol-4-yl)dibenzo[b,d]furan-2-carboxamide], for which the IC50 amounted to 27 nM in assay [1] and 1330 nM in assay [2].

Regarding `Cc1ccc2[nH]ncc2c1-c1nc(-c2ccccc2NC(C)C)nc(C(N)=O)c1N` [Compound 419], the IC50 worked out at 4 nM in assay [1] and 49 nM in assay [2].

Take `COC(C)(C)C(=O)Nc1ccccc1-c1nc(C(N)=O)c(N)c(-c2c(C)ccc3[nH]ncc23)n1` [Compound 420]: the values for the half-maximal inhibitory concentration (IC50) in assay [1] and in assay [2] were 7 nM and 65 nM, respectively.

As to `Cc1ccc2[nH]ncc2c1-c1nc(-c2cc(F)ccc2NCC(F)F)nc(C(N)=O)c1N` [Compound 421], the half-maximal inhibitory concentration (IC50) in assay [1] turned out to be 4 nM; in assay [2], 40 nM.

On to `Cc1ccc2[nH]ncc2c1-c1nc(-c2ccccc2NC(=O)[C@]2(C)CCCN2)nc(C(N)=O)c1N` [Compound 422], for which the IC50 in assay [1] turned out to be 19 nM; in assay [2] it was 373 nM.

`Cc1ccc2[nH]ncc2c1-c1nc(-c2ccccc2NC(=O)C2(C#N)CC2)nc(C(N)=O)c1N` [Compound 423]: the figures for the IC50 in assay [1] and in assay [2] were 4 nM and 23 nM, respectively.

As for `Cc1ccc2[nH]ncc2c1-c1nc(-c2ccccc2NC(=O)C2CCOCC2)nc(C(N)=O)c1N` [Compound 424], the IC50 in assay [1] turned out to be 4 nM; in assay [2], 81 nM.

As to `Cc1ccc2[nH]ncc2c1-c1nc(-c2ccccc2NC(=O)C(C)c2ccccc2)nc(C(N)=O)c1N` (stereo not drawn) [Compound 425], the IC50 is 139 nM in assay [1] and more than 10000 nM in assay [2].

For `Cc1ccc2[nH]ncc2c1-c1nc(-c2ccccc2NS(=O)(=O)C2CC2)nc(C(N)=O)c1N` [Compound 426], the 50% inhibitory concentration (IC50) in assay [1] was determined as 4 nM; in assay [2] it was 38 nM.

On to `Cc1ccc2[nH]ncc2c1-c1nc(-c2ccccc2NS(C)(=O)=O)nc(C(N)=O)c1N` [Compound 427, 5-amino-6-(5-methyl-1H-indazol-4-yl)-2-(2-(methylsulfonamido)phenyl)pyrimidine-4-carboxamide], for which the IC50 in assay [1] amounted to 4 nM; in assay [2] it was 23 nM.

On to `Cc1ccc(O)c(C)c1-c1nc(-c2ccccc2NC(=O)C2(C)CC2)cc(C(N)=O)c1N` [Compound 428], for which the IC50 was found to be 3 nM in assay [1] and 26 nM in assay [2].

In the case of `Cc1ccc2[nH]ncc2c1-c1nc(-c2ccccc2N[C@@H](C)C(F)(F)F)nc(C(N)=O)c1N` [Compound 429], the IC50 in assay [1] was found to be 4 nM; in assay [2], 36 nM.

`Cc1ccc2[nH]ncc2c1-c1nc(-c2ccccc2N[C@H](C)C(F)(F)F)nc(C(N)=O)c1N` [Compound 430]: the concentration for half-maximal inhibition (IC50) in assay [1] and in assay [2] was 8 nM throughout.

`Cc1ccc2[nH]ncc2c1-c1nc(-c2ccccc2NC(=O)[C@@]2(C)CCCN2)nc(C(N)=O)c1N` [Compound 431]: the concentration for half-maximal inhibition (IC50) in assay [1] amounted to 8 nM; in assay [2], 5 nM.

On to `COC1(C(=O)Nc2ccccc2-c2nc(C(N)=O)c(N)c(-c3c(C)ccc4[nH]ncc34)n2)CC1` [Compound 432], for which the IC50 is 5 nM in assay [1] and 105 nM in assay [2].

For the compound `Cc1ccc(-c2nc(C(N)=O)c(N)c(-c3c(C)ccc4[nH]ncc34)n2)c(NC(=O)C2(C)CC2)c1` [Compound 433], the IC50 turned out to be 5 nM in assay [1] and 13 nM in assay [2].

For the compound `Cc1ccc2[nH]ncc2c1-c1nc(-c2ccccc2NC(=O)C(C)(C)F)nc(C(N)=O)c1N` [Compound 434], the IC50 in assay [1] was 3 nM; in assay [2], 8 nM.

As to `Cc1ccc2[nH]ncc2c1-c1nc(-c2cccc(F)c2NCC(F)F)nc(C(N)=O)c1N` [Compound 435], the figures for the IC50 in assay [1] and in assay [2] were 4 nM and 136 nM, respectively.

Take `Cc1ccc2[nH]ncc2c1-c1nc(-c2cc(F)cc(F)c2NCC(F)F)nc(C(N)=O)c1N` [Compound 436]: the values for the IC50 in assay [1] and in assay [2] were 7 nM and 206 nM, respectively.

With `Cc1ccc(NC(=O)C2(C)CC2)c(-c2nc(C(N)=O)c(N)c(-c3c(C)ccc4[nH]ncc34)n2)c1` [Compound 437], the IC50 in assay [1] came out at 8 nM; in assay [2] it was 59 nM.

For the compound `Cc1ccc2[nH]ncc2c1-c1nc(-c2ccc(Cl)cc2NC(=O)C2(C)CC2)nc(C(N)=O)c1N` [Compound 438], the IC50 in assay [1] came to 4 nM; in assay [2] it was 17 nM.

Regarding `Cc1ccc2[nH]ncc2c1-c1nc(-c2cc(Cl)ccc2NC(=O)C2(C)CC2)nc(C(N)=O)c1N` [Compound 439], the values for the IC50 in assay [1] and in assay [2] were 6 nM and 42 nM, respectively.

For `Cc1cccc(-c2nc(C(N)=O)c(N)c(-c3c(C)ccc4[nH]ncc34)n2)c1NC(=O)C1(C)CC1` [Compound 440], the half-inhibitory concentration (IC50) came out at 13 nM in assay [1] and 523 nM in assay [2].

On to `Cc1ccc2[nH]ncc2c1-c1nc(-c2ccccc2NC(=O)C2(Cl)CC2)nc(C(N)=O)c1N` [Compound 441], for which the figures for the IC50 in assay [1] and in assay [2] were 4 nM and 8 nM, respectively.

For the compound `CCNc1ccccc1-c1nc(C(N)=O)c(N)c(-c2c(C)ccc3[nH]ncc23)n1` [Compound 442], the IC50 in assay [1] worked out at 4 nM; in assay [2], 33 nM.

On to `Cc1ccc2[nH]ncc2c1-c1nc(-c2ccccc2NC(=O)C2(C)CC2(F)F)nc(C(N)=O)c1N` (stereo not drawn) [Compound 443], for which the values for the IC50 in assay [1] and in assay [2] were 3 nM and 26 nM, respectively.

For the compound `Cc1ccc2[nH]ncc2c1-c1nc(-c2cc(C(F)(F)F)ccc2NC(=O)C2(C)CC2)nc(C(N)=O)c1N` [Compound 445], the IC50 in assay [1] amounted to 38 nM; in assay [2] it was 1030 nM.

With `Cc1ccc2[nH]ncc2c1-c1nc(-c2cc(F)c(F)cc2NC(=O)C2(C)CC2)nc(C(N)=O)c1N` [Compound 446], the 50% inhibitory concentration (IC50) in assay [1] and in assay [2] was 8 nM in each case.

As to `Cc1ccc2[nH]ncc2c1-c1nc(-c2cc(F)ccc2NC(=O)C2(C)CC2)nc(C(N)=O)c1N` [Compound 447], the IC50 was 3 nM in assay [1] and 5 nM in assay [2].

In the case of `Cc1ccc2[nH]ncc2c1-c1nc(-c2ccccc2NC(=O)C23CC(F)(C2)C3)nc(C(N)=O)c1N` [Compound 448], the IC50 is 7 nM in assay [1] and 112 nM in assay [2].

These data come from patent US20250304537A1 (Repare Therapeutics Inc., priority 2022, published 2025).
